From patent publication US9101632B2, “Kinase inhibitors, prodrug forms thereof and their use in therapy” (AUCKLAND UNISERVICES LIMITED, priority 2009, dated 2015)
Counter-ions that a name gives are not always drawn. Like-named read-outs stand apart in the source and are kept apart here.

Columns and labels:
erbB1 (EGFR) = erbB1 (EGFR) (Homo sapiens, UniProt P00533); assay: Inhibition of erbB1 autophosphorylation in EGF-stimulated intact A431 cells (Western immunoblotting); format: cell-based; conditions: 1 hour treatment, phospho-EGFR (Tyr 1068), β-actin corrected
Sequence of erbB1 (EGFR) (P00533 25-1210): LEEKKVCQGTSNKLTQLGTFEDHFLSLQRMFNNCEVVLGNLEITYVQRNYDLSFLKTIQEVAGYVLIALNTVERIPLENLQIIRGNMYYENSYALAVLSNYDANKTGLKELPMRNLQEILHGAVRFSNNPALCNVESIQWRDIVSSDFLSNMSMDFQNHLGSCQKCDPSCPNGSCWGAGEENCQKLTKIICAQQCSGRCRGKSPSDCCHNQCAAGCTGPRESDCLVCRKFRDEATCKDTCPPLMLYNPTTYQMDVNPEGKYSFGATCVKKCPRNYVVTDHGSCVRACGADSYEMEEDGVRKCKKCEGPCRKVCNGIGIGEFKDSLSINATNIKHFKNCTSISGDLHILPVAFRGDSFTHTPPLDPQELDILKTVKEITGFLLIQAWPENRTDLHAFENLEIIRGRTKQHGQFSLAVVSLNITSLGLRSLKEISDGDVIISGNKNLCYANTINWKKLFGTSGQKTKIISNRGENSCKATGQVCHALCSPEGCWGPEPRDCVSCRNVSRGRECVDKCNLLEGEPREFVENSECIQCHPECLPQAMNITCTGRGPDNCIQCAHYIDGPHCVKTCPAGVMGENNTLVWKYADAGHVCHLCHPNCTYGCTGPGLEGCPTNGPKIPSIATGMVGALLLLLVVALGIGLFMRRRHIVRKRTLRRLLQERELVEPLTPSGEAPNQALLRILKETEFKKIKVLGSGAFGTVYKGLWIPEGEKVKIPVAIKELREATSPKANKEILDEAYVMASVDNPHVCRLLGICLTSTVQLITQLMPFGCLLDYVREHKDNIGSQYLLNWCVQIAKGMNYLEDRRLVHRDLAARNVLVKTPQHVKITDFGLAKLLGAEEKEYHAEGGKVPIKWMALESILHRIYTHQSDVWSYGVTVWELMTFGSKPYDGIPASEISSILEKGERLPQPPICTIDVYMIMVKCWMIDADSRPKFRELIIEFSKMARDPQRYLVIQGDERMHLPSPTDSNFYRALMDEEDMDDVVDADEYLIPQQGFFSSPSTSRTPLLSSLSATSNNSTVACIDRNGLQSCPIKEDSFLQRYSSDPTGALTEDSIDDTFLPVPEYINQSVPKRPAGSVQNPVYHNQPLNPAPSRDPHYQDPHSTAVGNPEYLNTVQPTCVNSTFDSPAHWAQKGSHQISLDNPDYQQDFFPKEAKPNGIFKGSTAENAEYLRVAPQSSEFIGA
Method: (§1) A431 cells were seeded into 6 well plates (with αMEM+5% FCS). The following day, plates were washed once with serum-free medium and grown for 18 hours in serum-free medium (αMEM) before being exposed to a range of inhibitor or prodrug concentrations for 1 hour and then stimulated for 15 minutes with 100 ng/ml epidermal growth factor (EGF receptor ligand). Next cells were washed with ice cold PBS and lysed in modified RIPA buffer on ice (30 min). Lysates were vortexed and clarify by spinning before protein concentrations of samples was determined by BCA assay. […] All antibodies were diluted in 2% BSA TBS-Tween 0.1%. To detect phospho-EGFR (Tyr 1068) the monoclonal antibody (1:500; Cell Signalling #2234) was incubated overnight at 4° C. and binding was detected with goat-anti-Rabbit-IgG-HRP conjugated secondary antibody (1:5000; Santa Cruz #SC2054; 3 h RT). To detect downstream phospho-p44/42 MAPK(Erk 1/2) (Thr202/Tyr 204) the monoclonal antibody (Cell Signalling #4370) was used at a 1:500 dilution. The blot was then treated with Goat anti-rabbit IgG-HRP conjugated secondary antibody (Santa Cruz Biotechnology, Inc. sc-2054) for three hours at a ratio of 1:5000. To normalise for any inaccuracy in gel loading, each blot was probed with anti-β-actin antibody (Abacus ALS #MAB-1501R, 1:2000 dilution). The following day, the blot was treated with Goat anti-mouse IgG-HRP conjugated secondary antibody (Santa Cruz Biotechnology, Inc. sc-2055) for one hour at a 1:5000 ratio. Protein bands were visualized using Amersham ECL Plus Western Blotting Detection Reagent (GE Healthcare RPN2132). Densitometry was determined using Image J software. Values normalized to β-actin were plotted on SigmaPlot 11.0.

SKOV3 cells = assay: Inhibition of cellular proliferation (sulforhodamine B staining); conditions: for SKOV3 HCR (Hypoxic Cytotoxicity Ratio): fold change in intra-experimental IC50, 4 hours anoxia relative to oxic only
H1975 cells = assay: as above; conditions: for H1975 HCR (Hypoxic Cytotoxicity Ratio): fold change in intra-experimental IC50, 4 hours anoxia relative to oxic only
H1975 tumours = conditions: for Drug related deaths / Weight Loss Nadir (%): H1975 xenograft, q3dx4, intraperitoneal; for Drug related deaths: lactate buffer pH 4; for Weight Loss Nadir (%): mean nadir relative to day 0 weight
p44/42 MAPK (Erk1/2) = assay: Inhibition of p44/42 MAPK (Erk1/2) phosphorylation in EGF-stimulated intact A431 cells (Western immunoblotting); format: cell-based, human; conditions: for downstream p44/42 MAPK(Erk 1/2) phosphorylation (Thr202/Tyr 204), result in words: 1 hour treatment; for IC50: Homo sapiens, A-431, 1 hour treatment, read-out: IC50 p44/42 MAPK(Erk 1/2) phosphorylation (Thr202/Tyr 204)
Method: as §1

A431 cells = assay: Inhibition of cellular proliferation (sulforhodamine B staining)
A431 tumours = conditions: A431 xenograft, q3dx4, intraperitoneal; for Drug related deaths: lactate buffer pH 4; for TGD (Tumour Growth Delay): % increase in time to RTV4 relative to control; for Weight Loss Nadir (%): mean nadir relative to day 0 weight
[1] = pulse radiolysis, determined against methylviologen
[2] = Fragmentation rate constant of 1-electron reduced prodrugs by pulse radiolysis; format: physicochemical; conditions: formation of benzyl-type radicals absorbing in the 360-390 nm region
Excerpt: The rate constants for fragmentation, kfrag, of the 1-electron reduced prodrugs can be measured using pulse radiolysis to observe the time-resolved formation of the absorption spectrum of the benzyl-type radical produced upon fragmentation of the radical anion.

[3] = read-out: Cellular Growth Inhibition IC50 SKOV3 Anoxic, initial 4 hours of the 24 hour exposure under anoxic conditions
[4] = read-out: Cellular Growth Inhibition IC50 H1975 Anoxic, initial 4 hours of the 24 hour exposure under anoxic conditions
[5] = read-out: Cellular Growth Inhibition IC50 A431 Anoxic, initial 4 hours of the 24 hour exposure under anoxic conditions
[6] = read-out: Cellular Growth Inhibition IC50 SKOV3 Oxic, 24 hour exposure entirely under oxic conditions, washed, further 4 days
[7] = read-out: Cellular Growth Inhibition IC50 H1975 Oxic, 24 hour exposure entirely under oxic conditions, washed, further 4 days
[8] = read-out: Cellular Growth Inhibition IC50 A431 Oxic, 24 hour exposure entirely under oxic conditions, washed, further 4 days

Compound	IC50 (erbB1 (EGFR))	IC50 (SKOV3 cells; [3])	H1975 HCR (Hypoxic Cytotoxicity Ratio) (H1975 cells)	IC50 (H1975 cells; [4])	Drug related deaths (H1975 tumours)	Weight Loss Nadir (%) (H1975 tumours)	downstream p44/42 MAPK(Erk 1/2) phosphorylation (Thr202/Tyr 204), result in words (p44/42 MAPK (Erk1/2))	IC50 (A431 cells; [5])	IC50 (SKOV3 cells; [6])	IC50 (H1975 cells; [7])	IC50 (A431 cells; [8])	E(1)/V 1-electron reduction potential [1]	kfrag./s^−1 rate constant for fragmentation [2]	further results
Cc1nc([N+](=O)[O-])c(C[N+](C)(C)C/C=C/C(=O)Nc2cc3c(Nc4ccc5c(cnn5Cc5cccc(F)c5)c4)ncnc3cn2)n1C (as salt: bromide) [Compound 14, (2E)-N-[(1,2-dimethyl-4-nitro-1H-imidazol-5-yl)methyl]-4-[(4-{[1-(3-fluorobenzyl)-1H-indazol-5-yl]amino}pyrido[3,4-d]pyrimidin-6-yl)amino]-N,N-dimethyl-4-oxo-2-buten-1-ammonium bromide]	–	–	–	–	–	–	–	–	–	–	–	–	–	melting point: 188 to 192 °C (dec.)
CN(C)C/C=C/C(=O)Nc1cc2c(Nc3ccc(OCc4ccccn4)c(Cl)c3)ncnc2cn1 [Compound 3, (2E)-N-{4-[3-chloro-4-(2-pyridinylmethoxy)anilino]pyrido[3,4-d]pyrimidin-6-yl}-4-(dimethylamino)-2-butenamide]	48.3 nM	1130 nM	0.8	730 nM	0	−4.7 ± 0.4%	coordinate loss	140 nM	–	–	–	–	–	IC50 (p44/42 MAPK (Erk1/2)): 179 nM
CN(C)C/C=C/C(=O)Nc1cc2c(Nc3ccc(Cl)c(Br)c3)ncnc2cn1 [Compound 5, (2E)-N-[4-(3-bromo-4-chloroanilino)pyrido[3,4-d]pyrimidin-6-yl]-4-(dimethylamino)-2-butenamide]	39.5 nM	450 nM	0.9	500 nM	1	−8.5 ± 0.6%	coordinate loss	10 nM	300 nM	290 nM	9 nM	–	–	SKOV3 HCR (Hypoxic Cytotoxicity Ratio) (SKOV3 cells): 0.9; Drug related deaths (A431 tumours): 0; TGD (Tumour Growth Delay) (A431 tumours): >250%; Weight Loss Nadir (%) (A431 tumours): −6.3 ± 4.5%; A431 HCR (Hypoxic Cytotoxicity Ratio) (A431 cells; fold change in intra-experimental IC50, 4 hours anoxia relative to oxic only): 1.0
CN(C)C/C=C/C(=O)Nc1cc2c(Nc3ccc(Br)c(Cl)c3)ncnc2cn1 [Compound 6, (2E)-N-[4-(4-bromo-3-chloroanilino)pyrido[3,4-d]pyrimidin-6-yl]-4-(dimethylamino)-2-butenamide]	25 nM	550 nM	0.7	220 nM	–	–	coordinate loss	5 nM	200 nM	150 nM	5 nM	–	–	SKOV3 HCR (Hypoxic Cytotoxicity Ratio) (SKOV3 cells): 0.7; Drug related deaths (A431 tumours): 0; TGD (Tumour Growth Delay) (A431 tumours): >250%; Weight Loss Nadir (%) (A431 tumours): −1.5 ± 0.8%
Cn1cnc([N+](=O)[O-])c1C[N+](C)(C)C/C=C/C(=O)Nc1cc2c(Nc3ccc4c(cnn4Cc4cccc(F)c4)c3)ncnc2cn1 [Compound 13, (2E)-4-[(4-{[1-(3-fluorobenzyl)-1H-indazol-5-yl]amino}pyrido[3,4-d]pyrimidin-6-yl)amino]N,N-dimethyl-N-[(1-methyl-4-nitro-1H-imidazol-5-yl)methyl]-4-oxo-2-buten-1-ammonium bromide]	–	1600 nM	–	3300 nM	0	−4.1 ± 2.5%	–	240 nM	315000 nM	92000 nM	6200 nM	−0.417 V	60 ± 10 s⁻¹	–
Cn1cnc([N+](=O)[O-])c1C[N+](C)(C)C/C=C/C(=O)Nc1cc2c(Nc3ccc(OCc4ccccn4)c(Cl)c3)ncnc2cn1 [Compound 15, (2E)-4-({4-[3-chloro-4-(2-pyridinylmethoxy)anilino]pyrido[3,4-d]pyrimidin-6-yl}amino)-N,N-dimethyl-N-[(1-methyl-4-nitro-1H-imidazol-5-yl)methyl]-4-oxo-2-buten-1-ammonium bromide]	5290 nM	600 nM	–	430 nM	0	−9.4 ± 3.3%	–	300 nM	159000 nM	26000 nM	10000 nM	−0.423 V	60 ± 10 s⁻¹	growth delay of prodrug compared to its cognate kinase inhibitor, result in words (H1975 tumours; H1975 tumours, q3dx4): extended period of growth delay; IC50 (p44/42 MAPK (Erk1/2)): 8900 nM
Cn1cnc([N+](=O)[O-])c1C[N+](C)(C)C/C=C/C(=O)Nc1cc2c(Nc3ccc(Cl)c(Cl)c3)ncnc2cn1 [Compound 16, (2E)-4-{[4-(3,4-dichloroanilino)pyrido[3,4-d]pyrimidin-6-yl]amino}-N,N-dimethyl-N-[(1-methyl-4-nitro-1H-imidazol-5-yl)methyl]-4-oxo-2-buten-1-ammonium bromide]	–	530 nM	–	400 nM	0	−10.1 ± 0.7%	–	15 nM	40000 nM	32000 nM	330 nM	−0.418 V	60 ± 10 s⁻¹	–
